# Laboratory results published in patent US6814951B1, “Acetaldehyde and malondialdehyde protein adducts as markers for alcohol liver disease” (The Board of Regents of the University of Nebraska, priority 1995, dated 2004).
# How the values were obtained:
# [1] = target: affinity-purified polyclonal antibody specific for MAA adducts; test: Competitive ELISA: inhibition of MAA-specific antibody binding to solid-phase BSA-MAA; parameters: species or system rabbit; details: for 50% inhibitory concentration: bovine serum albumin-MAA as solid phase antigen
# From the text: A competitive ELISA was developed in order to detect the presence and to quantify the level of MDA/acetaldehyde modified proteins. Following the basic methodology developed by Roberts, et al, “A Sensitive Immunochemical Assay for Acetaminophen-Protein Adducts”, J Pharmacol Exp Ther, 1987; 241:527-533; Pumford, et al, “Immunochemical Quantitation of 3-(cystein-S-yl)Acetaminophen Adducts in Serum and Liver Proteins of Acetaminophen-Treated Mice”, J Pharmacol Exp Ther, 1989; 248:190-196, incorporated herein by reference, these assays were conducted by allowing a limiting amount of antibody to react with inhibitor, either standard or unknown, in the presence of excess solid phase antigen (MDA/acetaldehyde modified proteins). […] Biotinylated antibody (1/500 final dilution) was incubated with varying concentrations of test samples (standards or unknowns) overnight at 4° C., and then a 100 μl-aliquot of each sample was added to duplicate wells of the coated plates and incubated for 45 minutes at 37° C. After washing, 100 μl of alkaline phosphatase-conjugated streptavidin was added, and procedures as described above for the Direct ELISA were used to obtain optical density measurements. […] [formula]
# where ODmax is OD in the absence of inhibitor, BKG is OD from nonspecific absorption of assay reagents and ODsample is the OD for a given concentration of standard or unknown sample.
# An immunological assay, using an affinity-purified polyclonal antibody specific for MAA adducts, was employed to detect the presence of these adducts in livers of ethanol-fed rats. Since MAA adducts are likely composed of more than one distinct product, applicants proposed that 4-methyl-1,4-dihydropyridine-3,5-dicarbaldehyde (MDDC), derivatized to an ε-amino group of lysine, represents a structure for one of the major MAA-protein adducts. The purpose of this study was to characterize the antigen binding properties of the MAA specific antibody and determine whether MDDC epitopes are a major determinant of antibody recognition. A competitive ELISA, utilizing bovine serum albumin-MAA as the solid phase antigen, was used to test the binding specificity of the antibody.
# Balc/c mice = test: Immunization of mice with BSA or BSA-MAA, antiserum titration by ELISA; type: in vivo; details: antiserum tested on MSA and MSA-MAA
# Experimental: The purpose of this study was to determine how modification of a soluble carrier protein with the MAA adduct alters the humoral immune response. Balc/c mice were immunized weekly by i.p. injection with 100 μg of either bovine serum albumin unmodified (BSA) or modified with MAA (BSA-MAA). Titration of antiserum was performed by ELISA on wells coated with either BSA, BSA-MAA, mouse albumin (MSA) and MSA-MAA. […] In mice immunized with lower concentrations of BSA-MAA, antibody titers decreased in a dose dependent manner to both BSA and BSA-MAA (>1:3200 at 100 μg to 1:2000 at 25 μg).
# [2] = target: T1, bovine serum albumin (BSA) (Bos taurus, UniProt P02769); test: Stable binding of acetaldehyde to proteins in the presence of MDA; type: biochemical; details: acetaldehyde 1 mM, 24 hours of incubation, 4-fold molar excess of MDA
# T1 construct: purchased Sigma Chemical Co. (St. Louis, Mo.)
# T1 sequence (P02769 25-607): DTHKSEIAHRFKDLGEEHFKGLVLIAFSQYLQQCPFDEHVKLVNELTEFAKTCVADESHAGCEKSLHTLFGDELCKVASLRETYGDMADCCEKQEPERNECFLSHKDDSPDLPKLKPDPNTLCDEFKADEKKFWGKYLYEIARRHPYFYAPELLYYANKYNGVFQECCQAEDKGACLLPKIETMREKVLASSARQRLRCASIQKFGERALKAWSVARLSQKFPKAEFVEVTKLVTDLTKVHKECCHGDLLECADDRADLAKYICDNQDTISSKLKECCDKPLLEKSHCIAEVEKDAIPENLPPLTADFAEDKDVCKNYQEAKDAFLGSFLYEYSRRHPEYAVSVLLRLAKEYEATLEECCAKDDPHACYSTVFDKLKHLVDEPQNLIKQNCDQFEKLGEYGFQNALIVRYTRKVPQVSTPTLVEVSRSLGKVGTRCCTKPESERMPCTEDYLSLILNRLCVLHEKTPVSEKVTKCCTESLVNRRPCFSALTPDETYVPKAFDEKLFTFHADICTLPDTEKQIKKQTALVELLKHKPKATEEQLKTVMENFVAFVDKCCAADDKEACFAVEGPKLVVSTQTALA
# Experimental: Concentrations of acetaldehyde (0.1 mM or 1.0 mM) were incubated with various protein solutions in the absence and presence of varying concentrations of MDA. Incubations were conducted in phosphate buffer (0.1 M, pH 7.4) at 37° C. in polypropylene vessels that were sealed to minimize the loss of volatile radioactivity. The reactions were performed under nitrogen gas in the dark. During a 72-hr incubation period, aliquots were removed for stable acetaldehyde binding determinations and fluorescence measurements as previously described. Hoffmann, “Reaction of Acetaldehyde with Proteins: Formation of Stable Fluorescent Adducts”, Alcohol Clin Exp Res, 1993; 17:69-74. Briefly, postincubation, free and unstable-bound acetaldehyde were separated by exhaustive dialysis against phosphate buffer for 24 hours at 4° C. Radioactivity was then measured in the retenate and represented stably bound acetaldehyde. Results are expressed as nmoles acetaldehyde bound per mg of protein. Fluorescence measurements were obtained on post-dialysis samples using a Perkin Elmer LS-5B spectrophotofluorometer attached to a Perkin Elmer GP-100 graphics printer.
# When acetaldehyde (1 mM) was incubated with bovine serum albumin (BSA) in the presence of varying concentrations of MDA over a 72-hour time course, MDA markedly stimulated the binding of acetaldehyde to BSA in a concentration-dependent manner. […]
compound,measurement,setting,value
CC1C(C=O)=CN(C)C=C1C=O [1-methyl MDDC],50% inhibitory concentration,[1],14 pmoles/well
"CC1C(C=O)=CNC=C1C=O [1-hydrogen MDDC, 4-methyl-1,4-dihydropyridine-3,5-dicarbaldehyde]",50% inhibitory concentration,[1],240 pmoles/well
"NC(=O)C1=CN([C@@H]2O[C@H](COP(=O)(O)OP(=O)(O)OC[C@H]3O[C@@H](n4cnc5c(N)ncnc54)[C@H](O)[C@@H]3O)[C@@H](O)[C@H]2O)C=CC1 [NADH, reference compound]",inhibition of antibody binding,[1],negligible inhibitions
CCCCCCN1C=C(C=O)C(C)C(C=O)=C1 [1-hexyl-MDDC],50% inhibitory concentration,[1],4 pmoles/well
"Cc1ncc(CO)c(C=O)c1O [pyridoxal, reference compound]",inhibition of antibody binding,[1],negligible inhibitions
BSA-MAA: bovine serum albumin modified with MAA (malondialdehyde-acetaldehyde adduct),antibody titer to the MAA adduct (tested on MSA-MAA),Balc/c mice,significant antibody titer
same,response to the autologous protein (MSA),Balc/c mice,no response
"O=CCC=O [MDA, malondialdehyde]",stimulation of acetaldehyde binding to BSA,[2],13 fold
